Among the data in PubChem BioAssay (NCI) are GI50 and TGI values, retold here.

Test systems include HCC-2998 colon; SNB-75 CNS; SW-620 colon; UO-31 renal; ACHN renal; HOP-92 NSCLC; TK-10 renal; SK-MEL-2 melanoma; EKVX NSCLC; MOLT-4 leukemia.
Holding throughout (test): growth of human tumour cells (NCI), 48 h

Each structure is given as a SMILES string.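 A five-concentration, 48-hour dose response in 96-well plates underlies each endpoint, interpolated linearly between surrounding concentrations. Here, GI50 denotes the concentration required for 50% inhibition of growth. TGI: concentration producing complete growth inhibition.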

For the compound `COc1ccccc1NC(=O)c1ccc(/C=C/C(=O)c2nccn2C)cc1`, the GI50 in the assay on HCC-2998 colon was 487 nM; in the assay on SNB-75 CNS, 342 nM; in the assay on SW-620 colon, 473 nM; in the assay with UO-31 renal it was 357 nM; in the assay on ACHN renal, 532 nM; in the assay with HOP-92 NSCLC, 673 nM. Moreover, the GI50 was 811 nM in the assay with TK-10 renal, 1900 nM with SK-MEL-2 melanoma, 591 nM with EKVX NSCLC and 711 nM with MOLT-4 leukemia. Moreover, the TGI with HCC-2998 colon was found to be 0.912 µM; in the assay on SNB-75 CNS, 1.09 µM; with SW-620 colon, 1.22 µM; in the assay on UO-31 renal it was 0.714 µM; in the assay with ACHN renal, 1.09 µM; in the assay on HOP-92 NSCLC it was 5.01 µM. The TGI in the assay on TK-10 renal was 9.53 µM; in the assay on SK-MEL-2 melanoma, 10.8 µM; in the assay on EKVX NSCLC, 1.89 µM; in the assay with MOLT-4 leukemia, 2.22 µM.

As to `CCCCCCCCCCCCOC1C(CNCC2OC3OC(C)(C)OC3C2NC(=O)Nc2ccc(C(=O)OCC)cc2)OC2OC(C)(C)OC21` (stereo not given), the GI50 in the assay on HCC-2998 colon is 1800 nM; with SNB-75 CNS it was 5520 nM; with SW-620 colon, 1750 nM; in the assay on UO-31 renal it was 3960 nM; in the assay with ACHN renal, 3430 nM; in the assay on HOP-92 NSCLC, 1840 nM. In addition, the GI50 with TK-10 renal was 4130 nM; with SK-MEL-2 melanoma it was 13400 nM; with EKVX NSCLC it was 6080 nM; in the assay on MOLT-4 leukemia it was 3390 nM. Besides, the TGI came to 3.23 µM in the assay with HCC-2998 colon; 21.1 µM with SNB-75 CNS; 3.29 µM in the assay with SW-620 colon; 13.8 µM with UO-31 renal; 10.9 µM with ACHN renal; 3.92 µM in the assay with HOP-92 NSCLC. For the same compound, the TGI was determined as 15.2 µM with TK-10 renal, 29.7 µM in the assay on SK-MEL-2 melanoma, 18.9 µM in the assay with EKVX NSCLC and 8.43 µM with MOLT-4 leukemia.

Turning to `CN1CCN(Cc2ccc(NC(=O)c3cncc(C#Cc4cnc(N)c5ccccc45)c3)cc2C(F)(F)F)CC1`, the GI50 in the assay with HCC-2998 colon is 420 nM; with SNB-75 CNS it was 443 nM; in the assay with SW-620 colon, 125 nM; in the assay on UO-31 renal, 436 nM; with ACHN renal, 145 nM; with HOP-92 NSCLC it was 401 nM. Further, the GI50 with TK-10 renal was 466 nM; in the assay on SK-MEL-2 melanoma, 196 nM; with EKVX NSCLC, 413 nM; in the assay with MOLT-4 leukemia it was 164 nM. Moreover, the TGI was found to be 0.878 µM with HCC-2998 colon; 0.877 µM in the assay with SNB-75 CNS; 0.421 µM in the assay on SW-620 colon; 0.869 µM with UO-31 renal; 0.523 µM with ACHN renal; 1.25 µM in the assay with HOP-92 NSCLC. The TGI was 1 µM in the assay with TK-10 renal, 0.697 µM in the assay on SK-MEL-2 melanoma, 0.974 µM with EKVX NSCLC and 1.16 µM with MOLT-4 leukemia.

For `O=C1NC(=O)C2C(=O)NC(=O)C1C2(c1ccccc1)c1ccc(Cl)cc1` (stereo not given), the TGI in the assay on HCC-2998 colon, with SNB-75 CNS, in the assay on SW-620 colon, with UO-31 renal, in the assay on ACHN renal and in the assay on HOP-92 NSCLC was greater than 100 µM throughout. The TGI in the assay with TK-10 renal, with SK-MEL-2 melanoma, in the assay on EKVX NSCLC and in the assay with MOLT-4 leukemia was greater than 100 µM throughout.

For the compound `O=C(Cc1ccc(/C=C/C(=O)c2ncc[nH]2)cc1)Nc1ccc(Cl)cc1`, the GI50 in the assay with HCC-2998 colon was 3730 nM; with SNB-75 CNS, 3630 nM; with SW-620 colon, 1430 nM; with UO-31 renal, 1690 nM; in the assay on ACHN renal, 4040 nM; in the assay on HOP-92 NSCLC, 5740 nM. For the same compound, the GI50 in the assay on TK-10 renal is 5410 nM; in the assay with SK-MEL-2 melanoma, 5530 nM; in the assay on EKVX NSCLC, 5680 nM; in the assay on MOLT-4 leukemia it was 1800 nM. Further, the TGI in the assay with HCC-2998 colon was 7.48 µM; in the assay with SNB-75 CNS, greater than 25 µM; in the assay with SW-620 colon, greater than 25 µM; in the assay on UO-31 renal, 5.11 µM; with ACHN renal, 7.66 µM; with HOP-92 NSCLC it was 20.9 µM. The TGI in the assay on TK-10 renal stood at 13.9 µM; in the assay with SK-MEL-2 melanoma, 14.6 µM; in the assay with EKVX NSCLC it was 20.2 µM; in the assay with MOLT-4 leukemia, 24.2 µM.

For `CCOC(=O)CCCO`, the TGI in the assay with HCC-2998 colon, with SNB-75 CNS, in the assay with SW-620 colon, with UO-31 renal, with ACHN renal and with HOP-92 NSCLC was greater than 100 µM throughout. The TGI with TK-10 renal, in the assay with SK-MEL-2 melanoma, in the assay with EKVX NSCLC and with MOLT-4 leukemia was greater than 100 µM throughout.

On to `OC(c1cccc(C(F)(F)F)c1)c1cnccc1NC1CCCCCC1` (stereo not given), for which the GI50 is 1740 nM in the assay with HCC-2998 colon; 1770 nM with SNB-75 CNS; 1720 nM with SW-620 colon; 1350 nM in the assay with UO-31 renal; 1690 nM in the assay on ACHN renal; 1320 nM in the assay with HOP-92 NSCLC. The GI50 in the assay on TK-10 renal was 1740 nM; in the assay with SK-MEL-2 melanoma, 1710 nM; in the assay with EKVX NSCLC, 1980 nM; with MOLT-4 leukemia, 2300 nM. The TGI came to 3.36 µM with HCC-2998 colon; 8.25 µM in the assay with SNB-75 CNS; 3.37 µM in the assay on SW-620 colon; 2.97 µM in the assay on UO-31 renal; 3.24 µM with ACHN renal; 3.88 µM with HOP-92 NSCLC. In addition, the TGI in the assay on TK-10 renal was determined as 3.24 µM; in the assay on SK-MEL-2 melanoma, 3.34 µM; in the assay on EKVX NSCLC, 4.68 µM; in the assay with MOLT-4 leukemia it was 6.19 µM.

As to `O=C1/C(=C/c2ccccc2)CN(C(=O)Oc2ccc(Cl)cc2)C/C1=C\c1ccccc1`, the TGI in the assay on HCC-2998 colon stood at 2.99 µM; in the assay with SNB-75 CNS, 12.6 µM; in the assay with SW-620 colon, 2.77 µM; in the assay on UO-31 renal it was 15.5 µM; in the assay with ACHN renal, 8.86 µM; in the assay on HOP-92 NSCLC, 42.3 µM. Besides, the TGI in the assay with TK-10 renal was found to be 14.9 µM; in the assay on SK-MEL-2 melanoma, 16.5 µM; in the assay on EKVX NSCLC, 26.7 µM; in the assay with MOLT-4 leukemia, 8.63 µM.

Take `CN(C)c1ccc(/C=C2\C[N+](C)(C)C/C(=C\c3ccc(N(C)C)cc3)C2=O)cc1`: the TGI in the assay on HCC-2998 colon was 22.1 µM; with SNB-75 CNS, 67.3 µM; in the assay with SW-620 colon it was 43.2 µM; with UO-31 renal, greater than 100 µM; in the assay with ACHN renal, greater than 100 µM; in the assay with HOP-92 NSCLC, 78.9 µM. Besides, the TGI in the assay with TK-10 renal is greater than 100 µM; with SK-MEL-2 melanoma, 36.1 µM; in the assay on EKVX NSCLC it was greater than 100 µM; with MOLT-4 leukemia, 59.3 µM.
